Series [1] deals with T1, Polyunsaturated fatty acid lipoxygenase ALOX15B (Homo sapiens) (UniProt O15296).
T1 sequence (whole entry): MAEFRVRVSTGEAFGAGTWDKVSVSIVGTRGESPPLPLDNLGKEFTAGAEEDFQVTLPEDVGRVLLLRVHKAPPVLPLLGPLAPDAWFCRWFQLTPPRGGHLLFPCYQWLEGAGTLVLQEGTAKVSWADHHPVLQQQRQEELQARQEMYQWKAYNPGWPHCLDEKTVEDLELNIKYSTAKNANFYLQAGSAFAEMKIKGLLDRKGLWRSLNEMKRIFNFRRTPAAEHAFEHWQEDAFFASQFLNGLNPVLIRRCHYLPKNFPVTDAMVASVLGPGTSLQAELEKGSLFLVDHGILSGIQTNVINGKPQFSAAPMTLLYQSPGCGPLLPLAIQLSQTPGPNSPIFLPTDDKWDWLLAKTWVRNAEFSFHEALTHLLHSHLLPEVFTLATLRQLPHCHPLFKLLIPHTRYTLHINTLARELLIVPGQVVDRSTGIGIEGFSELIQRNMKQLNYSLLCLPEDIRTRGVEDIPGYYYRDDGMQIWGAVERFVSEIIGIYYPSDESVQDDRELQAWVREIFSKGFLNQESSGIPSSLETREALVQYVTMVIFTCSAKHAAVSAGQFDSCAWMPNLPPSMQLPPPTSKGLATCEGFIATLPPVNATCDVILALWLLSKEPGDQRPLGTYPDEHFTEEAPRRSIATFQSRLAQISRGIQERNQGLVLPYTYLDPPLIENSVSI
The series can be described thus: Inhibition of human recombinant 15-lipoxygenase over-expressed in CHO cells at 10 uM. In kind it is cell-based.

Series [2] deals with T2, Polyunsaturated fatty acid lipoxygenase ALOX15 (Oryctolagus cuniculus, UniProt P12530).
T2 sequence (P12530 whole entry): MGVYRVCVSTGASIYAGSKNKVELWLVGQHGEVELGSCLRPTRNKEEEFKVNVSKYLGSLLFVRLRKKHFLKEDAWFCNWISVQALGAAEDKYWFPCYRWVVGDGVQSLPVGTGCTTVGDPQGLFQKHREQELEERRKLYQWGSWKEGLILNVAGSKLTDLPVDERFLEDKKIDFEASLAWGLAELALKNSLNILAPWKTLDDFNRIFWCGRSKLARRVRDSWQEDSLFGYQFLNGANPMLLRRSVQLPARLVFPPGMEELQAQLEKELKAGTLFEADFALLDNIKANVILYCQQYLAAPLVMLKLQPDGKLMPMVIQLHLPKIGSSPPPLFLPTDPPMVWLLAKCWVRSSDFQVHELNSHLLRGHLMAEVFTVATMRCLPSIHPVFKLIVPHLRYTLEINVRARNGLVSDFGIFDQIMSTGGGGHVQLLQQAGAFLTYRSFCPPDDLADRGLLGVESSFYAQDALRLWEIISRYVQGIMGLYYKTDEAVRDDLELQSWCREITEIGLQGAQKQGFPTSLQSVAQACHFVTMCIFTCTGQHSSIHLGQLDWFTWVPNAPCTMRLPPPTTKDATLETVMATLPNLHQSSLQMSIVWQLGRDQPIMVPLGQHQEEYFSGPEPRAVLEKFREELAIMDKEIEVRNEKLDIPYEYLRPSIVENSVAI
The series can be described thus: Inhibition of rabbit 15-lipoxygenase in presence of linoleic acid.

The target of series [3] is T3, Polyunsaturated fatty acid lipoxygenase ALOX12 (Homo sapiens) (UniProt P18054).
T3 sequence (whole entry): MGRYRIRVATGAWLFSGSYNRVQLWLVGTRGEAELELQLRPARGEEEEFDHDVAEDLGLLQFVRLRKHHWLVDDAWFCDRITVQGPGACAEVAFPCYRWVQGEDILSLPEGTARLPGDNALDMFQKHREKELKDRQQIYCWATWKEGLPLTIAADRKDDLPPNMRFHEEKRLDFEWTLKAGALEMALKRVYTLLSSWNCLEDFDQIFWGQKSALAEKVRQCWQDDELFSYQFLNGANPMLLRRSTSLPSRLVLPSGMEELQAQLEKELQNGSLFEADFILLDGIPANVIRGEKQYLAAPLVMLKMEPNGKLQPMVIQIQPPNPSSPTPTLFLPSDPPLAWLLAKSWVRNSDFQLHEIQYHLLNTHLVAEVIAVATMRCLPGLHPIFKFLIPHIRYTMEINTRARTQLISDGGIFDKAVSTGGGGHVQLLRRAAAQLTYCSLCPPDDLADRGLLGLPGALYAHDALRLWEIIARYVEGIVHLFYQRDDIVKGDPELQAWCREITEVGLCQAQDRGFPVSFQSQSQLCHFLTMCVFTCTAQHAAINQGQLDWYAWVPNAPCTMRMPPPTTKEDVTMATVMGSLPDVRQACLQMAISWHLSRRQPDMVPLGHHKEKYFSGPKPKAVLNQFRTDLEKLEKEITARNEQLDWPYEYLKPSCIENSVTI
The series can be described thus: Inhibition of platelet 12-lipoxygenase at 10 uM.

Series [4] deals with T2, Polyunsaturated fatty acid lipoxygenase ALOX15. The series is described as follows: Inhibition of rabbit 15-lipoxygenase in presence of arachidonic acid.
Series [5] addresses T4, Polyunsaturated fatty acid 5-lipoxygenase (Homo sapiens) (UniProt P09917).
T4 sequence (whole entry): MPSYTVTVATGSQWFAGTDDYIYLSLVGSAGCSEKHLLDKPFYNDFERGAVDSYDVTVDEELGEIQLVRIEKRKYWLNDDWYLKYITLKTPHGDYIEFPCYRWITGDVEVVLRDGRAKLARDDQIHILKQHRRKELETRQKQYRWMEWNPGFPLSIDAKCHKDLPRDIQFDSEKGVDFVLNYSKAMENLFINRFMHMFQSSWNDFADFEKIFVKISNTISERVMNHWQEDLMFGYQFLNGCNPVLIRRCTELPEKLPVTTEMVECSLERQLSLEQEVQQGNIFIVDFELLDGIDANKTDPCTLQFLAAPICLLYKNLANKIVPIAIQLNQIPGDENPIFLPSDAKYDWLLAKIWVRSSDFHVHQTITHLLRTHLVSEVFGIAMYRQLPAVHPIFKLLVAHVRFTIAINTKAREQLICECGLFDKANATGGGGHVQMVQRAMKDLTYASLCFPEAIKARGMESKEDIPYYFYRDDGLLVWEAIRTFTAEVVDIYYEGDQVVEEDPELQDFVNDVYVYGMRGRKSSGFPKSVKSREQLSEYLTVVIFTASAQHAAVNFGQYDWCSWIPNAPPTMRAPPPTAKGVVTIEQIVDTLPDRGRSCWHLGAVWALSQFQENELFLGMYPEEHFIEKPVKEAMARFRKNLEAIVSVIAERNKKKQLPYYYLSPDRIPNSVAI
The series can be described thus: Inhibition of human 5-lipoxygenase at 10 uM.

The target of series [6] is T4, Polyunsaturated fatty acid 5-lipoxygenase (Homo sapiens). The series is described as follows: Inhibition of human 5-lipoxygenase at 3 uM.
The target in series [7] is T3, Polyunsaturated fatty acid lipoxygenase ALOX12 (Homo sapiens). The series is described as follows: Inhibition of platelet 12-lipoxygenase at 3 uM.
A short description of series [8]: Cmax in Sprague-Dawley rat at 7 mg/kg, po. In kind it is ADME, organism-based. Set-up: dose 7 mg/kg, route oral. The settings on record: in vivo.
A short description of series [9]: AUC in Sprague-Dawley rat at 7 mg/kg, po. To be noted: plasma. Set-up: dose 7 mg/kg, route oral. In kind it is ADME, organism-based.
Series [10] in a line: Aqueous solubility at pH6.5. In kind it is physicochemical. The settings on record: buffer, pH 6.5.
Series [11] has as its target T5, Polyunsaturated fatty acid lipoxygenase ALOX12 (Homo sapiens, UniProt P18054).
T5 sequence (P18054 whole entry): T3 sequence (whole entry)
The series can be described thus: Inhibition of platelet 12-lipoxygenase.

The target in series [12] is T6, Polyunsaturated fatty acid 5-lipoxygenase (Homo sapiens, UniProt P09917).
T6 sequence (P09917 whole entry): T4 sequence (whole entry)
The series can be described thus: Inhibition of 5-lipoxygenase.

A short description of series [13]: Hydrophilicity, log D at pH 6.5. The settings on record: buffer. In kind it is physicochemical.

For the compound `CCN([C@@H]1CCN(C(C)c2ccc(F)cc2)C1)S(=O)(=O)NCCc1nc(-c2cccs2)[nH]c1-c1ccc(OC)cc1` (some centres not stated), in [1], the inhibition stood at 96%.
As to `COc1ccc(-c2[nH]c(-c3cccs3)nc2CCNS(=O)(=O)N(C)[C@@H]2CCN(Cc3ccc(Cl)c(Cl)c3)C2)cc1`, the IC50 came out at 0.011 µM in [2] and 0.083 µM in [4]. Moreover, the values for the inhibition in series [3] and in [5] were 42% and 67%, respectively.
Turning to `CCCCCc1ccc(S(=O)(=O)NCCc2nc(-c3ccccc3)[nH]c2-c2ccc(OC)cc2)cc1`, the IC50 in series [2] was determined as 0.014 µM; in [4], 0.05 µM. Besides, the figures for the inhibition in series [1], in [6] and in series [7] were 83%, 15% and 45%, respectively.
On to `COc1ccc(-c2[nH]c(-c3ccccc3)nc2CCNS(=O)(=O)N(C)[C@@H]2CCN(Cc3ccccc3)C2)cc1`, for which the IC50 in series [2] was 0.031 µM; in [4], 0.186 µM. Also, the inhibition in [1] came out at 70%.
Take `CCCCCc1ccc(S(=O)(=O)NCCc2nc(-c3ccccc3)[nH]c2-c2ccc(F)cc2)cc1`: the figures for the IC50 in [2] and in [4] were 0.059 µM and 0.261 µM, respectively. In addition, the values for the inhibition in series [3] and in series [5] were 47% and 45%, respectively.
Compound `CCCCN1CCN(S(=O)(=O)NCCc2nc(-c3cccs3)[nH]c2-c2ccc(OC)cc2)CC1` gave a Cmax in [8] of 1.7 µM. The IC50 was determined as 0.014 µM in [2] and 0.05 µM in [4]. The same compound displayed an area under the curve (AUC) in series [9] of 4.4 µM·h.
As to `CCCCCc1ccc(S(=O)(=O)NCCc2nc(-c3cccs3)[nH]c2-c2ccc(OC)cc2)cc1`, the Cmax in series [8] turned out to be 0.6 µM. Moreover, the IC50 in series [2] was 0.006 µM; in series [4], 0.013 µM; in [11], 9.7 µM; in series [12], greater than 10 µM. Besides, the inhibition in [3] was found to be 50%; in series [1] it was 98%; in [5], 41%. Moreover, the solubility in series [10] is less than 1 µg/mL. Also, in [13], the logD was greater than 6.
On to `CCCCCc1ccc(S(=O)(=O)NCCc2nc(-c3ccccc3)[nH]c2-c2ccccc2)cc1`, for which the IC50 was determined as 0.033 µM in [2] and 0.162 µM in [4]. In addition, the results for the inhibition in series [3] and in [5] were 32% and 39%, respectively.
For `COc1ccc(-c2[nH]c(-c3cccs3)nc2CCNS(=O)(=O)N2CCN(c3ccc(Cl)c(Cl)c3)CC2)cc1`, the values for the IC50 in [2] and in series [4] were 0.036 µM and 0.133 µM, respectively. The inhibition in series [1] worked out at 84%.
In the case of `COc1ccc(-c2[nH]c(-c3ccccc3)nc2CCNS(=O)(=O)N[C@@H]2CCN(Cc3ccccc3)C2)cc1`, the IC50 in series [2] was found to be 0.083 µM; in [4] it was 0.719 µM.
With `CCCCCN1CCN(S(=O)(=O)NCCc2nc(-c3cccs3)[nH]c2-c2ccc(OC)cc2)CC1`, the IC50 in [2] stood at 0.091 µM; in [4], 0.646 µM.

Source of the values: ChEMBL document CHEMBL1149679 (Bioorg Med Chem Lett, 2007).
